“And” between values parts separate entries of the source, which are not always exact repeats. Equal values may be shown once. Read-outs that look alike come from different tables or passages of the source. Blank lines part the entries; values can stand above or below the compound they belong to. Numbered stars: 1 amine (or outer) side, 2 acyl side, 3 side chain; on linkers, the order of the positions; unused ones are H or OH. Bridge positions count the residues as written; N and C are the ends. Square brackets hold non-standard residues; d marks the D form. Peptide text beside a SMILES is read from it. * marks the point of attachment. X1 = CC[C@H](C)[C@@H](N[*:1])[C@@H](O)CC(=O)O[C@H](C(=O)[C@H](C)C(=O)[*:2])C(C)C; NMeY = CN[C@@H](Cc1ccc(O)cc1)C(=O)O; dNMeL = CN[C@H](CC(C)C)C(=O)O; Pyruvoyl = CC(=O)C(=O)*
Tests used:
[1] = Plitidepsin whole blood pharmacokinetics, non-compartmental; format: in vivo; conditions: human, iv, mean (SD); for Cmax: NCA, UPLC-MS/MS
Procedure: (§1) Sixteen samples were collected from each patient to quantify plitidepsin whole blood and BTZ plasma concentrations at baseline and at different times 1 week after the first infusion. In patients treated at the RD, 15 additional samples were taken 1 week after the second plitidepsin infusion.
(§2) Continuous variables were presented with summary statistics and categorical variables in frequency tables. Time‐to‐event variables were calculated using Kaplan–Meier approach. Binomial exact distribution was used to calculate 95% confidence intervals (95%CIs) for categorical variables. Individual PK parameters were tabulated. Statistical analyses were performed using SAS v.9.2, (SAS Institute Inc), and PK non‐compartmental analysis (NCA) was performed using Phoenix WinNonlin v.6.3.
Both drugs (plitidepsin and BTZ) were measured by validated liquid extraction methods followed by ultra-performance liquid chromatography tandem mass-spectrometry detection (Dynakin, Derio, Spain). The calibration range for plitidepsin and BTZ was 0.25-100 ng/mL, and 0.1-5 ng/mL, respectively. The reference for plitidepsin PK results was a population-PK model of plitidepsin (data from 303 patients treated in seven phase II studies and one phase III study), which was used to simulate exposure in whole blood after one 3-hour i.v. infusion of 5.0 mg/m² of plitidepsin in patients with similar characteristics compared to those treated in this study (unpublished data). The reference for BTZ PK results was a phase I study in patients with MM (see Moreau et al (25)).

[2] = patients with MM treated with plitidepsin in other trials; ref unpublished data; cited from earlier work
From the text: The plitidepsin concentrations found in this study fitted within the 90% prediction interval simulated for patients with MM, although most were above the 50th pe ...

[3] = system: MM cell lines and primary MM cells; conditions: cited from earlier work
From the text: The positive results observed with plitidepsin and BTZ against MM (both as single agents and in combination with DXM), their different mechanisms of action, and the potential synergism of the triple combination warranted the exploration of the efficacy of plitidepsin plus BTZ and DXM in a clinical trial in patients with relapsed and/or refractory MM.

[4] = system: MM; parameters: method as in PMID 23950178, PMID 28642620, PMID 24429336, PMID 28847998, PMID 27091875; conditions: named drug in a BTZ and DXM-containing combination; cited from earlier work
[5] = BTZ plasma pharmacokinetics, non-compartmental; format: in vivo, human; conditions: mean (SD); for C max: NCA, UPLC-MS/MS
Procedure: as §1, §2
Both drugs (plitidepsin and BTZ) were measured by validated liquid extraction methods followed by ultra-performance liquid chromatography tandem mass-spectrometry detection (Dynakin, Derio, Spain). The calibration range for plitidepsin and BTZ was 0.25-100 ng/mL, and 0.1-5 ng/mL, respectively.

[6] = parameters: method as in Moreau et al[25]; conditions: BTZ 1.3 mg/m^2 subcutaneously, reference study in MM patients; mean (SD), n = 10; ref Moreau et al[25]; cited from earlier work
[7] = system: MM; conditions: phase III VISTA trial; single-agent BTZ re-treatment; cited from earlier work
From the text: The feasibility of re‐treating MM patients with single‐agent bortezomib (BTZ) was first confirmed in the phase III VISTA trial,[8] where 47% of patients pre‐treated with BTZ‐based regimens during earlier phases of the disease responded again to the drug alone. This was further supported by the results of the phase II RETRIEVE and SUMMIT trials and the phase III APEX trial.[9], [10], [11]

[8] = system: MM; conditions: cited from earlier work
From the text: Results of the VISTA trial were further supported by those of phase II trials: RETRIEVE (ORR: 40%) and SUMMIT (ORR: 35%, including minimal response while on BTZ treatment), and of the phase III APEX trial (crossover from DXM to BTZ), in which the overall and complete response rates with BTZ were 43% and 9%, respectively.[9], [10], [11]

[9] = Dose level 1 4.0/1.0/40.0, Day 1 of Cycle 1, NCA, n = 6
[10] = Dose level 2 4.0/1.3/40.0, Day 1 of Cycle 1, NCA, n = 3
[11] = Dose level 3 (RD cohort) 5.0/1.3/40.0, Day 1 of Cycle 1, NCA, n = 9
[12] = phase III APEX trial (crossover from DXM to BTZ)

Compound: CC[C@H](C)[C@H]1NC(=O)[C@@H](NC(=O)[C@@H](CC(C)C)N(C)C(=O)[C@@H]2CCCN2C(=O)C(C)=O)[C@@H](C)OC(=O)[C@H](Cc2ccc(OC)cc2)N(C)C(=O)[C@@H]2CCCN2C(=O)[C@H](CC(C)C)NC(=O)[C@@H](C)C(=O)[C@H](C(C)C)OC(=O)C[C@@H]1O [Plitidepsin, plitidepsin] (Pyruvoyl-P[dNMeL]T[X1]LP[NMeY](Me); ester 3-C (inferred); N-terminus assumed)
- Cmax ([1]; Dose level 1 4.0/1.0/40.0, Day 1 of Cycle 1, 3-h i.v. infusion, n = 5): 83.8 ng/mL
- AUC(0-inf) ([1]; Dose level 1 4.0/1.0/40.0, Day 1 of Cycle 1, NCA, n = 5, read-out: AUC (time zero to infinity)): 1260 ng·h/mL
- clearance ([1]; Dose level 1 4.0/1.0/40.0, Day 1 of Cycle 1, NCA, n = 5, read-out: CL (total clearance) (converted)): 94.5 mL/min
- half-life ([1]; Dose level 1 4.0/1.0/40.0, Day 1 of Cycle 1, NCA, n = 5, read-out: HL (terminal half-life) (converted)): 40.1 h
- Vd ([1]; Dose level 1 4.0/1.0/40.0, Day 1 of Cycle 1, NCA, n = 5, read-out: V ss (volume of distribution at steady-state)): 169 L
- Vd ([1]; Dose level 1 4.0/1.0/40.0, Day 1 of Cycle 1, NCA, n = 5, read-out: V z (apparent volume of distribution during terminal phase)): 185 L
- Cmax ([1]; Dose level 2 4.0/1.3/40.0, Day 1 of Cycle 1, 3-h i.v. infusion, n = 3): 117 ng/mL
- AUC(0-inf) ([1]; Dose level 2 4.0/1.3/40.0, Day 1 of Cycle 1, NCA, n = 3, read-out: AUC (time zero to infinity)): 1420 ng·h/mL
- clearance ([1]; Dose level 2 4.0/1.3/40.0, Day 1 of Cycle 1, NCA, n = 3, read-out: CL (total clearance) (converted)): 93.2 mL/min
- half-life ([1]; Dose level 2 4.0/1.3/40.0, Day 1 of Cycle 1, NCA, n = 3, read-out: HL (terminal half-life) (converted)): 46.2 h
- Vd ([1]; Dose level 2 4.0/1.3/40.0, Day 1 of Cycle 1, NCA, n = 3, read-out: V ss (volume of distribution at steady-state)): 192 L
- Vd ([1]; Dose level 2 4.0/1.3/40.0, Day 1 of Cycle 1, NCA, n = 3, read-out: V z (apparent volume of distribution during terminal phase)): 394 L
- Cmax ([1]; Dose level 3 (RD cohort) 5.0/1.3/40.0, Day 1 of Cycle 1, 3-h i.v. infusion, n = 9): 71.7 ng/mL
- AUC(0-inf) ([1]; Dose level 3 (RD cohort) 5.0/1.3/40.0, Day 1 of Cycle 1, NCA, n = 9, read-out: AUC (time zero to infinity)): 1060 ng·h/mL
- clearance ([1]; Dose level 3 (RD cohort) 5.0/1.3/40.0, Day 1 of Cycle 1, NCA, n = 9, read-out: CL (total clearance) (converted)): 157 mL/min
- half-life ([1]; Dose level 3 (RD cohort) 5.0/1.3/40.0, Day 1 of Cycle 1, NCA, n = 9, read-out: HL (terminal half-life) (converted)): 44.6 h
- Vd ([1]; Dose level 3 (RD cohort) 5.0/1.3/40.0, Day 1 of Cycle 1, NCA, n = 9, read-out: V ss (volume of distribution at steady-state)): 341 L
- Vd ([1]; Dose level 3 (RD cohort) 5.0/1.3/40.0, Day 1 of Cycle 1, NCA, n = 9, read-out: V z (apparent volume of distribution during terminal phase)): 671 L
- Median CL [2]: 4.4 L/h
- Median peripheral volume [2]: 513 L
- In vitro activity of the combination of plitidepsin with BTZ or DXM [3]: synergistic activity

Compound: Nc1cccc2c1C(=O)N(C1CCC(=O)NC1=O)C2=O (stereo not drawn) [pomalidomide]
- Median DoR [4]: 7.4 months

Compound: Cc1[nH]c2ccccc2c1CCNCc1ccc(/C=C/C(=O)NO)cc1 [panobinostat]
- Median DoR [4]: 6.0 months

Compound: CC1(C)CCC(CN2CCN(c3ccc(C(=O)NS(=O)(=O)c4ccc(NCC5CCOCC5)c([N+](=O)[O-])c4)c(Oc4cnc5[nH]ccc5c4)c3)CC2)=C(c2ccc(Cl)cc2)C1 [venetoclax]
- Median DoR [4]: 9.7 months

Compound: elotuzumab
- Median DoR [4]: 11.4 months

- AUC (time zero to infinity) [5, 9]: 77.7 (17.9) h*μg/L
- CL/F (total clearance after extravascular administration) [5, 9]: 23.4 (6.79) L/h
- HL (terminal half-life) [5, 9]: 39.1 (9.22) h
- V z /F (apparent volume of distribution during terminal phase after extravascular administration) [5, 9]: 1308 (431) L
- C max ([5]; Dose level 1 4.0/1.0/40.0, Day 1 of Cycle 1, subcutaneous bolus, n = 6): 11.0 (7.71) μg/L
- AUC (time zero to infinity) [5, 10]: 134 (46.8) h*μg/L
- CL/F (total clearance after extravascular administration) [5, 10]: 17.9 (6.03) L/h
- HL (terminal half-life) [5, 10]: 51.5 (41.4) h
- V z /F (apparent volume of distribution during terminal phase after extravascular administration) [5, 10]: 1208 (52.4) L
- C max ([5]; Dose level 2 4.0/1.3/40.0, Day 1 of Cycle 1, subcutaneous bolus, n = 3): 16.9 (4.21) μg/L
- AUC (time zero to infinity) [5, 11]: 138 (88.6) h*μg/L
- CL/F (total clearance after extravascular administration) [5, 11]: 24.9 (19.2) L/h
- HL (terminal half-life) [5, 11]: 49.0 (17.8) h
- V z /F (apparent volume of distribution during terminal phase after extravascular administration) [5, 11]: 1658 (1457) L
- C max ([5]; Dose level 3 (RD cohort) 5.0/1.3/40.0, Day 1 of Cycle 1, subcutaneous bolus, n = 9): 17.0 (8.87) μg/L
Compound: CC(C)C[C@H](NC(=O)[C@H](Cc1ccccc1)NC(=O)c1cnccn1)B(O)O [BTZ, bortezomib]
- AUC (time zero to infinity) [6]: 151 (53.5) h*μg/L
- C max [6]: 16.5 μg/L and 16.5 (8.4) μg/L
- CL/F (total clearance after extravascular administration) [6]: 16.6 L/h and 16.6 (5.8) L/h
- HL (terminal half-life) [6]: 65.7 (46.5) h
- V z /F (apparent volume of distribution during terminal phase after extravascular administration) [6]: 1330 L and 1330 (578) L
- Patients pre-treated with BTZ-based regimens who responded again to the drug alone [7]: 47%
- ORR ([8]; phase II RETRIEVE trial): 40%
- ORR ([8]; phase II SUMMIT trial, including minimal response while on BTZ treatment): 35%
- Complete response rate [8, 12]: 9%
- Overall response rate [8, 12]: 43%

Compound: Nc1cccc2c1CN(C1CCC(=O)NC1=O)C2=O (stereo not drawn) [lenalidomide]
- Median DoR [4]: 8.7 months

— publication PMC9972151, “Phase I study of plitidepsin in combination with bortezomib and dexamethasone in patients with relapsed/refractory multiple myeloma” (Cancer Medicine, 2022)
